Test system: Engineered strains of E. coli
Assay type: cell-based
[1] = after solvent exposure, vs positive control

For `C=CC(C)CC` (stereo not drawn) [3-methyl-1-pentene], the “expression of acid resistance genes (gad, adi families)” value was “downregulated”, the “expression of chaperone proteins groLS, spy, and dnaJK” value was “highly upregulated” and the “expression of dihydroxyacetone kinase genes dhaKLM” value was “upregulated”. For the same compound, the “expression of galactitol metabolism genes gatABD” value was “upregulated”, the “expression of heat shock proteins and chaperones hslJORUV” value was “increased” and the “expression of ibpAB and clpAB (protein protection and repair)” value was “increased”. The “expression of marABC (multiple antibiotic resistance)” value was “upregulated”, the “expression of nitrate reductase genes narGHJKP” value was “upregulated” and the “expression of phage shock genes pspABCDE” value was “highly upregulated”. The “change in expression of gene adiA” value [1] was −3.34 ± 0.90, the “change in expression of gene adiC” value [1] was −4.45 ± 1.13 and the “change in expression of gene adiY” value [1] was −4.27 ± 0.72. For the same compound, the “change in expression of gene bhsA” value [1] was 4.75 ± 0.60, the “change in expression of gene bssR” value [1] was −0.03 ± 0.44 and the “change in expression of gene bssS” value [1] was 5.81 ± 0.84. For the same compound, the “change in expression of gene clpA” value [1] was 3.44 ± 0.63, the “change in expression of gene clpB” value [1] was 6.13 ± 0.69 and the “change in expression of gene clpP” value [1] was 2.17 ± 0.59. For the same compound, the “change in expression of gene coaA” value [1] was −1.75 ± 0.90, the “change in expression of gene coaD” value [1] was 0.47 ± 0.93 and the “change in expression of gene cspA” value [1] was −4.30 ± 0.58. For the same compound, the “change in expression of gene cspB” value [1] was −3.27 ± 1.33, the “change in expression of gene cspC” value [1] was −1.52 ± 0.93 and the “change in expression of gene cspD” value [1] was 3.11 ± 0.58. For the same compound, the “change in expression of gene cspE” value [1] was 0.28 ± 0.63, the “change in expression of gene cspF” value [1] was −2.49 ± 1.08 and the “change in expression of gene dhaK” value [1] was 3.88 ± 0.59. The “change in expression of gene dhaL” value [1] was 3.17 ± 0.63, the “change in expression of gene dnaJ” value [1] was 6.43 ± 0.69 and the “change in expression of gene dnaK” value [1] was 4.74 ± 0.66. For the same compound, the “change in expression of gene fabA” value [1] was −0.23 ± 0.77, the “change in expression of gene fabB” value [1] was 2.75 ± 0.66 and the “change in expression of gene fabD” value [1] was −0.87 ± 0.53. The “change in expression of gene flgA” value [1] was −2.55 ± 1.64, the “change in expression of gene flgB” value [1] was −5.95 ± 1.74 and the “change in expression of gene flgC” value [1] was −5.29 ± 2.06. The “change in expression of gene flgD” value [1] was −5.38 ± 2.00, the “change in expression of gene flgE” value [1] was −4.38 ± 1.24 and the “change in expression of gene flgF” value [1] was −3.45 ± 1.66. For the same compound, the “change in expression of gene flgG” value [1] was −4.32 ± 1.57, the “change in expression of gene flgH” value [1] was −3.08 ± 1.80 and the “change in expression of gene gabD” value [1] was −0.39 ± 1.37. For the same compound, the “change in expression of gene gabP” value [1] was −0.55 ± 1.33, the “change in expression of gene gabT” value [1] was −0.74 ± 1.35 and the “change in expression of gene gadA” value [1] was −3.97 ± 0.90. For the same compound, the “change in expression of gene gadB” value [1] was −2.34 ± 0.85, the “change in expression of gene gadC” value [1] was −1.88 ± 0.83 and the “change in expression of gene gadE” value [1] was −5.01 ± 0.68. For the same compound, the “change in expression of gene gadW” value [1] was −5.73 ± 1.17, the “change in expression of gene gadX” value [1] was −2.89 ± 0.58 and the “change in expression of gene gadY” value [1] was −4.81 ± 0.90. The “change in expression of gene glpA” value [1] was 7.04 ± 0.87, the “change in expression of gene glpB” value [1] was 4.86 ± 0.63 and the “change in expression of gene glpC” value [1] was 5.64 ± 0.80. The “change in expression of gene groL” value [1] was 4.37 ± 0.57, the “change in expression of gene groS” value [1] was 4.22 ± 0.50 and the “change in expression of gene hchA” value [1] was 2.03 ± 0.62. For the same compound, the “change in expression of gene hslJ” value [1] was 1.02 ± 0.67, the “change in expression of gene hslO” value [1] was 3.42 ± 0.64 and the “change in expression of gene hslR” value [1] was 3.19 ± 0.66. The “change in expression of gene hslU” value [1] was 3.91 ± 0.56, the “change in expression of gene hslV” value [1] was 3.66 ± 0.61 and the “change in expression of gene ibpA” value [1] was 9.84 ± 1.21. The “change in expression of gene ibpB” value [1] was 11.65 ± 1.50, the “change in expression of gene lhgO” value [1] was −1.08 ± 1.80 and the “change in expression of gene lipA” value [1] was 0.62 ± 0.61. For the same compound, the “change in expression of gene lipB” value [1] was 1.26 ± 0.64, the “change in expression of gene narG” value [1] was 0.67 ± 0.66 and the “change in expression of gene narH” value [1] was −0.40 ± 0.65. For the same compound, the “change in expression of gene narI” value [1] was −2.41 ± 1.20, the “change in expression of gene narJ” value [1] was −0.67 ± 0.73 and the “change in expression of gene narK” value [1] was 0.15 ± 0.90. The “change in expression of gene potA” value [1] was −2.42 ± 0.82, the “change in expression of gene potB” value [1] was −1.56 ± 1.33 and the “change in expression of gene potC” value [1] was −0.61 ± 1.22. For the same compound, the “change in expression of gene pspA” value [1] was 10.50 ± 0.55, the “change in expression of gene pspB” value [1] was 8.15 ± 0.68 and the “change in expression of gene rpoA” value [1] was 0.25 ± 0.44. The “change in expression of gene rpoB” value [1] was 0.39 ± 0.40, the “change in expression of gene rpoC” value [1] was 0.99 ± 0.39 and the “change in expression of gene rpoD” value [1] was 3.68 ± 0.70. For the same compound, the “change in expression of gene rpoE” value [1] was −2.04 ± 0.63, the “change in expression of gene rpoH” value [1] was 0.68 ± 0.52 and the “change in expression of gene rpoN” value [1] was −1.52 ± 0.50. For the same compound, the “change in expression of gene rpoS” value [1] was −0.17 ± 0.48, the “change in expression of gene rpoZ” value [1] was −1.17 ± 0.55 and the “change in expression of gene spy” value [1] was 3.35 ± 0.88. For the same compound, the “change in expression of gene tatA” value [1] was −1.50 ± 0.52, the “change in expression of gene tatB” value [1] was −1.06 ± 0.60 and the “change in expression of gene tatC” value [1] was −1.33 ± 1.12. The “change in expression of gene tatD” value [1] was −2.62 ± 1.19, the “change in expression of gene tatE” value [1] was −0.18 ± 0.65 and the “number of genes with significant changes in expression” value (vs control, Bon Ferroni corrected p-value<0.05) was 540 genes.
